Test results as given in patent US20160090351A1, “INHIBITORS OF DEUBIQUITINATING PROTEASES” (BRANDEIS UNIVERSITY, priority 2013, published 2016).

What was measured:
[1] = system: HEK 293T cells; assay: accumulation of K48- and K63-linked Ub species in HEK 293T cells; type: cell-based, human; details: 50 μM, 2 h
Description: FIG. 32 depicts data showing that diphenyl carbonates inhibit DUBs in HEK 293T cells. A. Viability of HEK 293T cells assessed by the propidium iodide exclusion method: diphenyl carbonate (100 μM), bortezomib (V, 20 μM) and G5 (2 μM). N≧3, mean+/−s.d. B. HEK 293T cells were treated with the stated compounds (50 μM) for 2 h and then assayed for the accumulation of K48-linked Ub species. C. As in A, but K63-linked Ub was assayed. D. HEK 293T cells were treated with C14, C15, C17, C18 (100 μM) or DMSO for 2 hours, then harvested, lysed and treated with HA-Ub-VS. After 30 min, lysates were analyzed by SDS-PAGE and probed for HA, tubulin and actin. An intervening lane was removed for clarity. E. HEK 293T cells expressing Ub-G76V-GFP were treated with diphenyl carbonates (100 μM), bortezomib (20 μM) and G5 (2 μM). […] N>3, Mean+/−s.d. See also FIG. 39. […]

[2] = system: DUBs; assay: decomposition of high molecular weight ubiquitinated proteins (HMW-Ub) in lysates of HEK 293T cells expressing HA-Ub; type: biochemical, human; details: for DUB inhibitory activity, SAR in words: relative to C4 or parent analog
Method in brief: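 HEK 293T lysates expressing N-terminally HA-tagged ubiquitin (1 mg/mL) were incubated with compound (1% DMSO) at 37° C, and aliquots were quenched over time in reducing loading buffer. HMW-Ub decomposition was followed by SDS-PAGE and anti-HA immunoblotting. EC50 was determined after 2 h with varying compound concentrations.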

## NCc1ccc(OC(=O)Oc2ccc(Cl)cc2)cc1 [Compound C14, 4-(aminomethyl)phenyl(4-chlorophenol)carbonate]
[1]
  accumulation of K48-linked HMW-Ub: K48-linked HMW-Ub species accumulated
  accumulation of K63-linked Ub chains: increase the accumulation of K63-linked Ub chains
[2]
  increase of inhibitory potency relative to C4 (factor): approximately 10

## NCc1ccc(OC(=O)Oc2ccc(Br)cc2)cc1 [Compound C15, 4-(aminomethyl)phenyl(4-bromophenyl)carbonate]
[1]
  accumulation of K48-linked HMW-Ub: K48-linked HMW-Ub species accumulated
  accumulation of K63-linked Ub chains: increase the accumulation of K63-linked Ub chains
[2]
  increase of inhibitory potency relative to C4 (factor): approximately 10

## NCc1ccc(OC(=O)Oc2ccc3ccccc3c2)cc1 [Compound C17]
[1]
  accumulation of K48-linked HMW-Ub: K48-linked HMW-Ub species accumulated
  accumulation of K63-linked Ub chains: increase the accumulation of K63-linked Ub chains
[2]
  DUB inhibitory activity, SAR in words: improved potency relative to C4

## NCc1ccc(OC(=O)Oc2cccc3ccccc23)cc1 [Compound C18]
[1]
  accumulation of K48-linked HMW-Ub: K48-linked HMW-Ub species accumulated
  accumulation of K63-linked Ub chains: increase the accumulation of K63-linked Ub chains
[2]
  DUB inhibitory activity, SAR in words: improved potency relative to C4

## O=C1/C(=C/c2ccc([N+](=O)[O-])cc2)CS(=O)(=O)C/C1=C\c1ccc([N+](=O)[O-])cc1 [Compound G5, reference compound]
[2]; HEK 293T HA-Ub lysates, 37° C.
  stabilization of the HMW-Ub pool: stabilized the HMW-Ub pool
